The text below walks through data of patent publication US20090081183A1, “HIV Transcription Repressor Complex and Compositions and Methods Based Thereon” (priority 1997, published 2009).

Read-outs that look alike come from different tables or passages of the source.

In test [1] the test system is HIV-1 LTR. The experiment in a line: Tat-activated integrated LTR-CAT reporter assay in HeLa-CD4-LTR cells. In kind it is cell-based. The protocol: (§1) Cell lines transfections and assays. Transfections of HeLa cells were performed as previously described (49). HeLa-CD4-LTR (9) cells were grown in DMEM supplemented with 10% FCS and transfected with 20 μg plasmid DNA (prepared using EndoFree plasmid kit, Qiagen, Valencia, Calif.) by calcium phosphate coprecipitation as per manufacturer's instructions (ProFection system, Promega, Madison, Wis.). After 30 minutes at room temperature, the solution was added to the cells (2.5-4×10^5 cells/plate). Twelve hours after transfection, the cells were washed with PBS and fed fresh medium. Forty-eight hours later the cells were harvested, cellular extracts prepared, and CAT assays performed as previously described (49). To control for the effect of transcription factor overexpression on general cellular promoters a reporter construct driven by the beta-actin promoter, pH[…]-actin-luciferase (66), was used in cotransfection and CAT expression normalized for luciferase activity. Other plasmids used have been previously described (2, 49). […] Up to 30 μl of cellular extract (normalized for protein concentration) in a final volume of 130 μl was used for luciferase reactions.
The LTR reporter carried by HeLa-CD4-LTR cell line exists within the native chromatin structure of the genome. […]
(In general: In a reporter assay the amount or activity of a reporter protein is the signal.)

The subject of test [2] is HIV-1 LTR. The experiment in a line: Tat-activated, LTR-driven CAT expression, plasmid-based reporter, transient cotransfection. Format: cell-based. The settings on record: data not shown. The method, then: as §1
The test system of test [3] is RCS oligonucleotide (−10 to +27 of HIV-1 LTR). Format: binding.
Another test deals with HIV-1. The settings on record: HeLa cells cotransfected with pNL4-3 (CXCR4) or pYU-2 (CCR5).

For `CC(/C=C/C(=O)NO)=C\[C@@H](C)C(=O)c1ccc(N(C)C)cc1` [trichostatin-A, reference compound], in the test with HIV-1 LTR [1] (with YY1 transfection, trichostatin-A added to culture medium (data not shown)), the “Effect on YY1-mediated repression of integrated LTR-CAT expression” value was “blocked”.

Turning to “YY1: cellular transcription factor that binds the RCS and inhibits LTR-driven HIV transcription (SEQ ID NO: 3)”, the “Tat-activated CAT expression from integrated LTR reporter” value in the test on HIV-1 LTR [1] (200 ng pAR-Tat, 2.5 μg CMV expression plasmid, normalized to β-actin-luciferase) was “inhibited Tat-activated CAT activity”. Also, the “Tat-activated, LTR-driven CAT expression (plasmid-based reporter)” value in the test with HIV-1 LTR [2] is recorded as “inhibited Tat-activated, LTR-driven CAT expression”. The “Complex formation with the RCS in EMSA” value is reported as “increasing levels of complex formation” in test [3] (20 ng to 100 ng added in the presence of 10 ng of LSF) and “did not form a detectable complex” in test [3] (up to 100 ng protein alone). In the test with HIV-1, the “HIV-1 production (p24gag in culture supernatant)” value is listed as “dose-dependent inhibition”.
